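Growth conditions: 96-well plates. Treatment: test compound, 48 hours, 5 concentrations. Analysis: linear interpolation between bracketing concentrations; unreached endpoints set to highest concentration. Abbreviation: GI50, concentration required for 50% inhibition of growth.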 The source made the active and inactive calls. Cut-off read from the data, not from the text of the source: active = GI50 up to about 1.1 µM and inactive = higher.
What was measured:
Test in all cases: inhibition of tumour cell growth, NCI panel, 48 h
[1] = tested on: DLD-1
[2] = tested on: LXFL 529
[3] = tested on: HOP-18
[4] = tested on: XF498
[5] = tested on: DMS-273
[6] = tested on: RXF 631
[7] = tested on: SNB-78
[8] = tested on: KM-20L2
[9] = tested on: DMS-114

Measured: GI50

CCOC(=O)C1=C(OC(OCC)C(CC)[Se]c2ccccc2)CCCC1 (stereo not drawn)
inactive: [1] 17.5 µM | [2] 20.5 µM | [3] 29.7 µM | [4] 20 µM | [5] 15.1 µM | [6] 10.2 µM | [7] 22.3 µM | [8] 19.8 µM

CC(=O)OC1COC(Nc2ccc(C(C)=O)cc2)C(OC(C)=O)C1OC(C)=O (stereo not drawn)
inactive: [1] > 100 µM | [9] > 100 µM | [2] > 100 µM | [3] > 100 µM | [5] > 100 µM | [6] > 100 µM | [7] > 100 µM | [8] > 100 µM

CCOC(OC1=CCCC1)C(C)[Se]c1ccccc1 (stereo not drawn)
inactive: [1] 21.6 µM | [9] 6.81 µM | [2] 35.7 µM | [3] 28.2 µM | [4] 20.4 µM | [5] 16.9 µM | [6] 16.5 µM | [7] > 100 µM | [8] 29.4 µM

CCOC(=O)NC(=O)c1cn(CCCCCCCCCCC(=O)N2CCN(CCn3cc(C(=O)NC(=O)OCC)c(=O)[nH]c3=O)CC2)c(=O)[nH]c1=O
inactive: [1] > 100 µM | [9] > 100 µM | [2] > 100 µM | [3] > 100 µM | [4] > 100 µM | [5] > 100 µM | [6] > 100 µM | [7] > 100 µM | [8] > 100 µM

O=C(NC(=O)c1cn(CCN2CCN(C(=O)NCCCCCCNC(=O)N3CCN(CCn4cc(C(=O)NC(=O)OCc5ccccc5)c(=O)[nH]c4=O)CC3)CC2)c(=O)[nH]c1=O)OCc1ccccc1
inactive: [1] > 100 µM | [9] > 100 µM | [3] > 100 µM | [5] > 100 µM | [6] > 100 µM | [7] > 100 µM | [8] > 100 µM

CCOC(=O)C[C@@H](C)[C@]1(C(=O)OC)CCCC1=O
inactive: [1] > 47.2 µM | [9] > 44.4 µM | [2] > 100 µM | [3] > 100 µM | [4] > 100 µM | [5] > 70.6 µM | [7] > 100 µM | [8] > 59.2 µM

COC1OC2COC(c3ccccc3)OC2C(O)C1Br (stereo not drawn)
inactive: [1] > 100 µM | [2] > 100 µM | [3] > 100 µM | [4] > 100 µM | [5] > 100 µM | [7] > 100 µM | [8] > 10 µM

CC1=C(c2ccccc2)CON(c2ccccc2)C1
inactive: [9] 31 µM | [2] 29.1 µM | [4] 40.6 µM | [6] 24.8 µM | [7] 39.9 µM | [8] 31.4 µM

C/C(=C1/CCC/C(=C(/C)c2ccccc2)C1=O)c1ccccc1
inactive: [1] 43.4 µM | [9] 21.7 µM | [2] 43.1 µM | [3] > 100 µM | [4] 30.6 µM | [5] 32 µM | [7] 36.5 µM | [8] 40.5 µM

O=C1c2ccccc2C2C1N2C(=O)C(F)(F)F (stereo not drawn)
inactive: [1] > 100 µM | [9] 39.9 µM | [2] > 100 µM | [3] > 100 µM | [4] > 100 µM | [5] > 100 µM | [6] 94.6 µM | [8] > 100 µM

CCOC(=O)CNC(=O)OCc1ccccc1
inactive: [1] > 100 µM | [9] > 100 µM | [2] > 100 µM | [4] > 100 µM | [5] > 100 µM | [6] > 100 µM | [7] > 100 µM

O=C1CC2Sc3ccccc3N=C2N1c1ccc(Cl)cc1Cl (stereo not drawn)
inactive: [1] 32.7 µM | [9] 33 µM | [2] 84.9 µM | [3] > 100 µM | [4] > 100 µM | [6] 65.3 µM | [7] 65.8 µM | [8] > 100 µM

COc1ccc(/C=N/NC(=O)C2=C(N)N(c3ccccc3)C(=C(C#N)C#N)S2)cc1
inactive: [1] > 100 µM | [2] > 100 µM | [3] > 100 µM

Cc1cc2c(=O)cc(-c3ccc(Cl)cc3Cl)oc2c(C(=O)O)c1C
inactive: [1] > 100 µM | [9] > 100 µM | [2] > 100 µM | [3] > 100 µM | [4] > 100 µM | [7] > 100 µM | [8] > 100 µM

O=C1c2ccccc2C(=O)N1C/C=C/CO
inactive: [1] > 100 µM | [9] > 100 µM | [2] > 100 µM | [3] > 100 µM | [5] > 100 µM | [7] > 100 µM | [8] > 100 µM

COc1cc(/C=C2\[C@H]3c4c(c(OC)c(C)c(OC)c4OC)CC(C(=O)N2Cc2ccccc2)N3C)c(OC)c(C)c1OC
inactive: [1] 47.5 µM | [2] 19.4 µM | [3] 23.7 µM | [5] 15.5 µM | [8] 20.3 µM

CCN(CC)CCCNc1ccc2nnn3c4ccc(O)cc4c(=O)c1c23
inactive: [1] 3.48 µM | [9] 11.7 µM | [2] 7.67 µM | [3] 14.3 µM | [4] 15.5 µM | [5] 3.44 µM | [6] 1.88 µM | [7] 16.4 µM | [8] 5.3 µM

O=C(O)CCCNS(=O)(=O)c1ccccc1
inactive: [1] > 100 µM | [2] > 100 µM | [3] > 100 µM | [4] 69.3 µM | [5] > 100 µM | [8] > 100 µM

CC(=O)O/N=C/c1ncccc1OC(C)=O
inactive: [1] > 100 µM | [9] > 100 µM | [2] > 100 µM | [3] > 100 µM | [4] > 100 µM | [5] > 100 µM | [6] > 100 µM | [8] > 100 µM

COC(=O)CC1NC(=O)C1C(C)(OC)OC (stereo not drawn)
inactive: [1] > 100 µM | [9] > 100 µM | [2] > 100 µM | [4] > 100 µM | [5] > 100 µM | [6] > 100 µM | [8] > 100 µM

c1ccc(SC(CCCCOC2CCCCO2)Sc2ccccc2)cc1 (stereo not drawn)
inactive: [1] > 100 µM | [9] 34.1 µM | [2] 41.1 µM | [4] > 100 µM | [5] > 100 µM | [7] 97.1 µM

O=S(=O)(O)C(F)(F)C(F)(F)C(F)(F)C(F)(F)F
inactive: [1] > 100 µM | [9] > 100 µM | [2] > 100 µM | [3] > 100 µM | [4] > 100 µM | [5] > 100 µM | [8] > 100 µM

CC(C)C(=S)N(C)O
inactive: [1] 2.73 µM | [9] 2.43 µM | [2] 2.39 µM | [6] 11.7 µM | [7] 61.2 µM | [8] 14.5 µM

COc1cc2nc(Sc3c([N+](=O)[O-])ncn3C)[nH]c2cc1OC
inactive: [1] 14 µM | [9] 11.6 µM | [2] 12.4 µM | [3] > 100 µM | [4] 11 µM | [5] 1.65 µM | [6] 1.74 µM | [7] 34.8 µM | [8] 33.6 µM

COC(=O)[C@@H]1C(=O)O[C@@H](c2ccc(OC)c(OC)c2OC)[C@@H]1C(=O)OC.COC(=O)[C@H]1C(=O)O[C@@H](c2ccc(OC)c(OC)c2OC)[C@@H]1C(=O)OC
inactive: [1] > 100 µM | [9] > 100 µM | [2] > 100 µM | [4] > 100 µM | [5] > 100 µM | [6] > 100 µM | [7] > 100 µM | [8] > 100 µM

COC1CC2C3/C(=N/Nc4ccc([N+](=O)[O-])cc4[N+](=O)[O-])CCC2(C)C3C1 (stereo not drawn)
inactive: [1] > 10 µM | [9] > 100 µM | [2] > 10 µM | [3] > 10 µM | [4] > 100 µM | [5] > 10 µM | [8] > 10 µM

From ChEMBL document CHEMBL1201862, “PubChem BioAssay data set” (2004)
